Results as given in US12534501B2, “Targeting deregulated Wnt signaling in cancer using stabilized alpha-helices of BCL-9” (Dana-Farber Cancer Institute, Inc., priority 2011, dated 2026).
Numbered stars: 1 amine (or outer) side, 2 acyl side, 3 side chain; on linkers, the order of the positions; unused ones are H or OH. Bridge positions count the residues as written; N and C are the ends. Square brackets hold non-standard residues; d marks the D form. Peptide text beside a SMILES is read from it. ξ: configuration not given here. ξαMeNle(6-ylidene) = CC(CCCC=[*:3])(N[*:1])C(=O)[*:2]; Nle = CCCC[C@H](N)C(=O)O

Experiments:
[1] = tested on: GFP-positive INA-6 cells in human bone chips of SCID-hu mice; assay: SCID-hu murine model of human MM; assay type: in vivo; conditions: for shuIL-6R serum levels: 5 mg/kg local injection every other day; for tumor cell invasion outside the bone chip: histologic analysis
Description: In a second in vivo model, the impact of SAH-BCL9B treatment on the growth of INA-6 MM cells within a human bone graft implanted in the flank of SCID-hu mice was examined (Tassone, P. et al. Blood 106, 713-6 (2005)). GFP-labeled INA-6 cells (5×10^6), which express both BCL9 and β-catenin and are suppressed by SAH-BCL9B in vitro were injected into bone grafts four weeks after implantation. Two days later, cohorts of mice (n=5) were treated by local injection with vehicle (2.5% DMSO in D5W), SAH-BCL9B, or SAH-BCL9B(R359E) peptides (5 mg/kg) for a total of 10 doses administered every other day. To monitor tumor burden, the serum level of soluble human interleukin-6 receptor (shuIL-6R) was measured, which is first detectable 3-4 weeks after INA-6 tumor engraftment. […] Mice were sacrificed 33 days after INA-6 cell injection and evaluated for MM tumor burden by fluorescence imaging, histologic analysis, and anti-CD34 staining. […] Similar to the CRC model, local angiogenesis was suppressed in SAH-BCL9B-treated SCID-hu mice, as monitored by anti-CD34 staining and blood vessel quantitation (FIG. 4I).
For the SCID-hu murine model of human MM, human fetal bone grafts measuring 1.5×0.5 cm were subcutaneously implanted into eight week old male CB-17 SCID mice (Taconic) as previously described (Tassone, P. et al. Blood 106, 713-6 (2005)). Four weeks after bone implantation, 5×10^6 GFP-positive INA-6 MM cells were injected directly into each bone implant. Two days later, mice were treated with 100 μl injections of vehicle (2.5% DMSO in D5W) or SAH-BCL9 peptides (5 mg/kg) instilled adjacent to the bone chips on alternate days for a total of 10 doses. Mouse sera were serially monitored for shuIL-6R levels by ELISA (R&D Systems). Thirty-three days after tumor cell injection, the mice were sacrificed and analyzed for tumor burden by fluorescence imaging and histologic analysis of the bone grafts. See results in FIG. 4A-FIG. 4I. In addition, TUNEL staining was performed on samples obtained from the mice. […] See results in FIG. 22 and FIG. 23. All animal experiments were performed in accordance with approved protocols of the Dana-Farber Cancer Institute Animal Care and Use Committee.

[2] = biological target: T1, β-catenin (Homo sapiens, UniProt P35222); assay: Anti-FITC / anti-β-catenin co-immunoprecipitation from lysates of peptide-treated cells; assay type: cell-based; conditions: FITC and β-catenin immunoprecipitation, in situ
T1 construct: endogenous in cells; host or cells: Colo320
T1 sequence (P35222 1-781): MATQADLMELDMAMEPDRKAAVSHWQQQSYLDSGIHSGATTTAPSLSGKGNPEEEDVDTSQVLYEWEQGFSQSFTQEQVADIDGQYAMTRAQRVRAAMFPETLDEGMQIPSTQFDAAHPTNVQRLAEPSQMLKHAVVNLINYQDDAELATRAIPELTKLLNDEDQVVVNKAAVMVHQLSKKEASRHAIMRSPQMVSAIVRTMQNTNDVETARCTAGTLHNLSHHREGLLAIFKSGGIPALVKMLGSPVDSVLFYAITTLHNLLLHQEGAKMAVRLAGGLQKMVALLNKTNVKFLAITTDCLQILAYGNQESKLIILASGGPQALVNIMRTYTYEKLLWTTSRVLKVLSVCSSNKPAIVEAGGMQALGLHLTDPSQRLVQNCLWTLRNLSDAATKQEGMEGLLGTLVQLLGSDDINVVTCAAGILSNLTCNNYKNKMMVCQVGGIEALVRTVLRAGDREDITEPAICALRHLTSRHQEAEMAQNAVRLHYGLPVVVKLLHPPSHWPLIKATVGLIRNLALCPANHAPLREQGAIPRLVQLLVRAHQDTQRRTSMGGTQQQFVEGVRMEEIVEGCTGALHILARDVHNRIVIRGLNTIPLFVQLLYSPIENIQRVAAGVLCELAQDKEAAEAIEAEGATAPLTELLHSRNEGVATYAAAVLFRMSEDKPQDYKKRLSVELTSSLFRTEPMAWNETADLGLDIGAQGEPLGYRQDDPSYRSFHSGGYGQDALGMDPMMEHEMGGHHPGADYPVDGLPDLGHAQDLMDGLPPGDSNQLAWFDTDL
Excerpt: Western blotting, performed as described (Sukhdeo, K. et al. Proc Natl Acad Sci USA 104, 7516-21 (2007)), employed the following primary antibodies: BCL9 (6109) (Mani, M. et al. Cancer Res 69, 7577-86 (2009)), BCL9 (ab37305, Abcam), B9L (AF4967, R&D Systems), β-catenin (CAT5-H10, Zymed), FITC (ab19224, Abcam), Actin-HRP (C-11, Santa Cruz), Caspase3 (#9662, Cell Signaling), IκBα (#9242, Cell signaling), PARP (#9542, Cell Signaling), E-cadherin (#3195, Cell Signaling), and Lamin B (sc-6217, Santa Cruz). Horseradish peroxidase conjugated secondary antibodies were purchased from Santa Cruz and SouthernBiotech. Co-immunoprecipitation was performed as described (Walensky, L. D. et al. Science 305, 1466-70 (2004)). Briefly, cells were lysed in 50 mM Tris, 150 mM NaCl, and 1% CHAPS buffer containing protease and phosphatase inhibitors. Lysates were precleared with Protein A/G PLUS-agarose beads (Santa Cruz Biotechnologies) for 3 hours followed by overnight incubation at 4° C. with the respective antibodies. Agarose A/G beads were then added for 4 h, pelleted, and washed as described (Walensky, L. D. et al. Science 305, 1466-70 (2004)). See results in FIG. 1D, FIG. 1H, FIG. 2A, FIG. 8.

Compound	shuIL-6R serum levels ([1]; 10 doses)	local angiogenesis (anti-CD34 staining, blood vessel quantitation) ([1]; 5 mg/kg local, 10 doses)	tumor burden within the bone chip ([1]; 5 mg/kg local, 10 doses, day 33)	TUNEL positivity in myeloma tumor tissue ([1]; bone chips bearing INA-6 cells)	tumor cell invasion outside the bone chip ([1]; day 33)	β-catenin interaction by co-immunoprecipitation [2]
CCCC[C@H](NC(=O)[C@H](CCCNC(=N)N)NC(=O)[C@H](CCC(N)=O)NC(=O)[C@@H](NC(=O)C1(C)CCCC=CCCCC(C)(NC(=O)[C@H](CC(C)C)NC(=O)[C@H](CO)NC(=O)[C@H](CCCNC(=N)N)NC(=O)[C@H](CCC(=O)O)NC(=O)[C@H](CCCNC(=N)N)NC(=O)[C@H](Cc2c[nH]cn2)NC(=O)[C@H](CCC(=O)O)NC(=O)[C@H](CC(C)C)NC(=O)[C@H](CCC(N)=O)NC(=O)[C@H](CCC(=O)O)NC(=O)[C@H](CCC(N)=O)NC(=O)[C@H](CO)NC(=O)[C@H](CC(C)C)NC(C)=O)C(=O)N[C@@H]([C@@H](C)O)C(=O)N[C@@H](CC(C)C)C(=O)N[C@@H](CCCNC(=N)N)C(=O)N1)[C@@H](C)CC)C(=O)N[C@@H](CC(C)C)C(=O)N[C@@H](Cc1ccccc1)C(N)=O (stereo partly drawn) [SAH-BCL9B] (Ac-LSQEQLEHRERSL[ξαMeNle(6-ylidene)]TLR[ξαMeNle(6-ylidene)]IQR[Nle]LF-NH2; staple 14-18)	low to undetectable levels	suppressed	significantly reduced	notably increased TUNEL positivity	resided within the confines of the bone chip	most effective β-catenin interactor in situ
SAH-BCL9B(R359E): SEQ ID NO: 7: LSQEQLEHEERSLXTLRXIQRBLF; reverse polarity point mutant, negative control of SAH-BCL9B	progressive increase in shuIL-6R levels				invasion into the surrounding soft tissue	impaired β-catenin interaction
